Experimental data as given in patent US7524866B2, “Prevention and treatment of androgen—deprivation induced osteoporosis” (GTx, Inc., priority 2001, dated 2009).

Tests used:
[1] = test system: orchidectomized rats (ORX); assay: Compression test of the distal femur (Example 4); format: in vivo, rat; settings: for Elastic Modulus / Energy / Maximum Load / Stiffness / Toughness / Ultimate Strength: distal femur
Procedure: Eight month-old male Sprague Dawley rats were either sham-operated (SHAM) or orchidectomized (ORX). Treatment began immediately following surgery. The treatment groups were as described in Table 5. Bone strength was evaluated using a compression test at the vertebral body, a three point bending test at the femoral shaft, a compression test at the distal femur and a cantilever compression test of the femoral neck. Prior to mechanical testing, all samples were thawed in cold saline and carefully cleaned of any remaining adherent soft tissue.

[2] = test system: orchidectomized rats (ORX); assay: Static and dynamic bone histomorphometry of the proximal tibia (Example 4); format: in vivo, rat; settings: for loss of trabecular bone volume at the proximal tibia: 10 mg/kg/d Tor; for loss of trabecular bone volume at the proximal tibia / Orx-induced increase in bone turnover parameters at the proximal tibia: E 0.2 mg/kg/d; for Orx-induced increase in bone turnover parameters at the proximal tibia: Tor 5 and 10 mg/kg/d, p<0.05 vs. Orx+vehicle; for Bone Form Rate, Bone Volume Ref / Bone Form. Rate, Bone Surface Ref / Bone Formation Rate, Tissue Volume Ref / Mineral Apposition Rate / Mineralizing Surface / Osteoclast Number/Bone Surface / Osteoclast Surface / Trabecular Bone Volume / Trabecular Number / Trabecular Separation / Trabecular Thickness: proximal tibia, 6 wks, mean
Procedure: Eight month-old male Sprague Dawley rats were either sham-operated (SHAM) or orchidectomized (ORX). Treatment began immediately following surgery. The treatment groups were as described in Table 5.
Animals were given calcein (intraperitoneally) 12 and 2 days prior to sacrifice. Femurs and lumbar vertebra (L5) were preserved frozen wrapped in saline-soaked gauze. Tibiae and lumbar vertebrae (L4) were preserved in 10% formalin for 48 hours, then transferred to 70% ethanol for long-term storage.
Histology and Static and Dynamic Bone Histomorphometry: Approximately 1.1 cm of the proximal tibia was cut away and the frontal face was trimmed with a low-speed diamond wheel saw to expose the marrow cavity. The L4 lumbar vertebral body was prepared from the lumbar vertebra by trimming off the processes with a slow-speed diamond saw. Each proximal tibia and lumbar vertebral body was dehydrated in a series of ascending ethanol (EtOH) concentrations. Following dehydration, the bone samples were infiltrated and then embedded in a methyl methacrylate-dibutyl phthalate plastic composite. Embedded samples of the proximal tibiae were sectioned using a Leitz motorized rotary microtome equipped with a tungsten-carbide microtome knife. Once the blocks had been trimmed and faced to the sampling site, a 4-micron section was stained with Goldner's trichrome stain for bright field microscopy and an 8-micron section was left unstained for epifluorescent microscopy. Embedded lumbar vertebral body samples were also sectioned using a Leitz motorized rotary microtome equipped with a tungsten-carbide microtome knife. Once the blocks had been trimmed and faced to the sampling site, a 4-micron section was stained with Goldner's trichrome stain for bright field microscopy and an 8-micron section was left unstained for epifluorescent microscopy.
The cancellous bone in the secondary spongiosa of the proximal tibia was evaluated in a region of interest (ROI) that was 1.0 mm distal to the lowest point of the growth plate in a rectilinear region of 3×2 fields. The cancellous bone in the marrow cavity of the lumbar vertebral body was evaluated in a ROI that was approximately 0.5 mm away from the end plates and dorsal and ventral cortices.
The bone histomorphometry was performed using an OsteoMeasure software program (OsteoMetrics, Inc., Atlanta, Ga.) interfaced with a Nikon Eclipse E400 light/epifluorescent microscope and video subsystem. All slides were analyzed in a blinded manner. Total tissue area, trabecular bone area, trabecular bone perimeter and osteoclast perimeter and number were measured on 4 μm Goldner's trichrome-stained sections. Percent trabecular bone area, trabecular number, trabecular thickness, trabecular separation, osteoclast perimeter as a percentage of bone surface and osteoclast number per unit of bone surface were then calculated according to standardized formulae. For deriving the dynamic parameters, single-labeled calcein perimeter, double-labeled calcein perimeter and interlabel width (label thickness) were measured on 8 μm unstained sections. Mineralizing surface, mineral apposition rate and bone formation rate-surface, bone and tissue referents were calculated.

[3] = test system: men with high-grade prostatic intraepithelial neoplasia (HGPIN); assay: Phase IIa clinical trial: bone turnover markers (serum calcium, alkaline phosphatase) in men treated with Toremifene; format: in vivo, human; settings: 18 men with HGPIN, 60 mg/d Toremifene
Procedure: In a Phase IIa clinical trial to determine whether Toremifene has chemopreventive activity against prostate cancer, 18 men with high-grade prostatic intraepithelial neoplasia (HGPIN) were treated with 60 mg/d of Toremifene for 4 months.

[4] = Week 12, 5 mg/kg/d of Toremifene, Estradiol 0.2 mg/kg/d
[5] = week 6, mean, Toremifene 5 mg/kg/d, Estradiol 0.2 mg/kg/d
[6] = week 12, mean, Toremifene 5 mg/kg/d, Estradiol 0.2 mg/kg/d
[7] = Toremifene 5 mg/kg/d, Estradiol 0.2 mg/kg/d
[8] = week 6, mean, Toremifene 10 mg/kg/d
[9] = week 12, mean, Toremifene 10 mg/kg/d

With `C[C@]12CC[C@@H]3c4ccc(O)cc4CC[C@H]3[C@@H]1CC[C@@H]2O` [17-β-Estradiol] the “bone strength, compression test of the distal femur” value (“bone strength, compression test” for short) ([1]; Week 6) was “highest values in all groups”, the “bone strength, compression test” value [1, 4] was “highest values at Week 12” and the “Elastic Modulus” value [1, 5] was 579.48 MPa. For the same compound, the Energy [1, 5] was 66.00 mJ, the “Maximum Load” value [1, 5] was 561.45 N and the Stiffness [1, 5] was 4758.55 N/mm. The Toughness [1, 5] was 0.91 MJ/m^3, the “Ultimate Strength” value [1, 5] was 22.89 N/mm^2 and the “Elastic Modulus” value [1, 6] was 473.02 MPa. The Energy [1, 6] was 55.94 mJ, the “Maximum Load” value [1, 6] was 487.94 N and the Stiffness [1, 6] was 3714.71 N/mm. For the same compound, the Toughness [1, 6] was 0.78 MJ/m^3, the “Ultimate Strength” value [1, 6] was 20.66 N/mm^2 and the “loss of trabecular bone volume at the proximal tibia” value [2] was “very effective in preventing loss of trabecular bone volume”. The “Orx-induced increase in bone turnover parameters at the proximal tibia” value [2] was “significantly inhibited”, the “Bone Form Rate, Bone Volume Ref” value [2, 7] was 42.70 %/yr and the “Bone Form. Rate, Bone Surface Ref” value [2, 7] was 10.63 um^3/um^2/yr. The “Bone Formation Rate, Tissue Volume Ref” value [2, 7] was 3.13 %/yr, the “Mineral Apposition Rate” value [2, 7] was 0.43 um/day and the “Mineralizing Surface” value [2, 7] was 5.31%. The “Osteoclast Number/Bone Surface” value [2, 7] was 3.77 #/mm, the “Osteoclast Surface” value [2, 7] was 6.35% and the “Trabecular Bone Volume” value [2, 7] was 8.26%. The “Trabecular Number” value [2, 7] was 1.75 #/mm, the “Trabecular Separation” value [2, 7] was 572 um and the “Trabecular Thickness” value [2, 7] was 47.11 um.
For `CN(C)CCOc1ccc(/C(=C(/CCCl)c2ccccc2)c2ccccc2)cc1` [Toremifene], the “bone strength, compression test” value ([1]; Week 6) was “bone strength similar to that of Sham-operated animals”, the “bone strength, compression test” value [1, 4] was “maintained similar strength” and the “bone strength, compression test” value ([1]; Week 12, 10 mg/kg/d Toremifene) was “small decrease in strength”. The “Elastic Modulus” value [1, 5] was 535.08 MPa, the Energy [1, 5] was 56.00 mJ and the “Maximum Load” value [1, 5] was 469.64 N. The Stiffness [1, 5] was 4058.07 N/mm, the Toughness [1, 5] was 0.81 MJ/m^3 and the “Ultimate Strength” value [1, 5] was 20.54 N/mm^2. For the same compound, the “Elastic Modulus” value [1, 8] was 440.77 MPa, the Energy [1, 8] was 66.19 mJ and the “Maximum Load” value [1, 8] was 447.29 N. The Stiffness [1, 8] was 3549.70 N/mm, the Toughness [1, 8] was 0.91 MJ/m^3 and the “Ultimate Strength” value [1, 8] was 18.47 N/mm^2. For the same compound, the “Elastic Modulus” value [1, 6] was 379.32 MPa, the Energy [1, 6] was 53.13 mJ and the “Maximum Load” value [1, 6] was 458.79 N. The Stiffness [1, 6] was 3175.07 N/mm, the Toughness [1, 6] was 0.69 MJ/m^3 and the “Ultimate Strength” value [1, 6] was 18.09 N/mm^2. The “Elastic Modulus” value [1, 9] was 418.05 MPa, the Energy [1, 9] was 45.57 mJ and the “Maximum Load” value [1, 9] was 411.45 N. For the same compound, the Stiffness [1, 9] was 3366.63 N/mm, the Toughness [1, 9] was 0.62 MJ/m^3 and the “Ultimate Strength” value [1, 9] was 16.81 N/mm^2. The “loss of trabecular bone volume at the proximal tibia” value [2] was “very effective in preventing loss of trabecular bone volume”, the “Orx-induced increase in bone turnover parameters at the proximal tibia” value [2] was “significantly reduced the Orx-induced elevation in bone turnover parameters” and the “Bone Form Rate, Bone Volume Ref” value [2, 7] was 58.20 %/yr. The “Bone Form. Rate, Bone Surface Ref” value [2, 7] was 10.78 um^3/um^2/yr, the “Bone Formation Rate, Tissue Volume Ref” value [2, 7] was 2.30 %/yr and the “Mineral Apposition Rate” value [2, 7] was 0.32 um/day. The “Mineralizing Surface” value [2, 7] was 6.67%, the “Osteoclast Number/Bone Surface” value [2, 7] was 3.98 #/mm and the “Osteoclast Surface” value [2, 7] was 6.61%. For the same compound, the “Trabecular Bone Volume” value [2, 7] was 5.33%, the “Trabecular Number” value [2, 7] was 1.30 #/mm and the “Trabecular Separation” value [2, 7] was 837.67 um. For the same compound, the “Trabecular Thickness” value [2, 7] was 41.39 um, the “Bone Form Rate, Bone Volume Ref” value ([2]; Toremifene 10 mg/kg/d) was 21.26 %/yr and the “Bone Form. Rate, Bone Surface Ref” value ([2]; Toremifene 10 mg/kg/d) was 4.78 um^3/um^2/yr. The “Bone Formation Rate, Tissue Volume Ref” value ([2]; Toremifene 10 mg/kg/d) was 2.07 %/yr, the “Mineral Apposition Rate” value ([2]; Toremifene 10 mg/kg/d) was 0.34 um/day and the “Mineralizing Surface” value ([2]; Toremifene 10 mg/kg/d) was 3.02%. The “Osteoclast Number/Bone Surface” value ([2]; Toremifene 10 mg/kg/d) was 3.33 #/mm, the “Osteoclast Surface” value ([2]; Toremifene 10 mg/kg/d) was 5.27% and the “Trabecular Bone Volume” value ([2]; Toremifene 10 mg/kg/d) was 8.81%. The “Trabecular Number” value ([2]; Toremifene 10 mg/kg/d) was 1.85 #/mm, the “Trabecular Separation” value ([2]; Toremifene 10 mg/kg/d) was 570.89 um and the “Trabecular Thickness” value ([2]; Toremifene 10 mg/kg/d) was 45.54 um. For the same compound, the “alkaline phosphatase, change compared to baseline (mean)” value ([3]; Day 60, p<0.001) was −18.7, the “alkaline phosphatase, change compared to baseline (mean)” value ([3]; Day 120, p<0.001) was −21.0 and the “serum calcium, reduction from baseline (mean)” value ([3]; Day 120, p=0.005) was −0.12.
